Assay results reported in patent US5885834A, “Antisense oligodeoxynucleotide against phosphodiesterase” (priority 1997, dated 1999).
Entries after “also recorded” stand apart in the source; their conditions may differ.

Legend:
[1] = test system: PDE1B1 mRNA in RPMI 8392 cells; assay: Quantitative RT-PCR of PDE1B1 mRNA after ODN treatment; assay type: cell-based, human; details: 10 or 30 μM ODN
From the text: This is usually determined by looking at the reduction or disappearance of the protein product, either by selective measurement of an enzymatic activity of the protein, where applicable, or by immunoquantitation with specific antibodies by Western blot or ELISA techniques. Also, when PO or PS ODNs are used, which are capable of activating RNase H activity, it is expected that the mRNA of the targeted gene would be down regulated, most of the time, along with the protein product, and this can be readily tested by Northern blot analysis or PCR techniques. Using quantitative RT-PCR with primers specific for PDE1B1, we examined the RPMI 8392 cells for the presence of PDE1B1 mRNA. […] NS ODN, at these concentrations, had no effect on the expression of PDE1B1 mRNA. […] In this connection, the expression of β-actin is unaffected by cAMP and, therefore, β-actin mRNA levels were used as a control. Another gene that is often also used for control measurements for this purpose is that of glyceraldehyde-3-phosphate dehydrogenase (G3PDH).
HPBL were isolated from a normal human donor and placed in culture with (+PHA) or without (-PHA) phytohemagglutinin for 3 days. Quantitative RT-PCR was performed with 2 μg of HPBL RNA, using reagents and protocol from GIBCO/BRL. Degenerate 23 nt primers were synthesized based on reported sequences for PDE1B1. The sequence of the forward primer (Primer 1) corresponds to nt -34 to -12 and the sequence of the reverse primer (Primer 2) is complementary to nt 277 to 299 of the PDE1B1 cDNA. […]
Using quantitative RT-PCR, the effect of AS ODN and NS ODN on the level of mRNA for PDE1B1 in RPMI 8392 cells was examined. Quantitative RT-PCR was used to determine the relative amounts of β-actin and PDE1B1 mRNAs present in RPMI 8392 cells after 1 and 2 days in culture with 10 μM and 30 μM AS ODN (AS) and NS ODN (NS). […]

[2] = test system: PDE1 activity in RPMI 8392 cells; assay: CaM-stimulated PDE (PDE1) activity in cells after ODN treatment; assay type: cell-based, human; details: for PDE1 (CaM-stimulated PDE) activity: 3 days
Method: Cells were grown to a density of about 10^6 /ml, collected by centrifugation (1200×g, 10 min), resuspended in I ml of homogenization buffer containing 40 mM Tris/HCl (pH 7.5), 1 mM EDTA, 1 mM DTT, 35 μg/ml phenylmethylsulfonyl fluoride, 15 mM benzamidine, 1 μg/ml leupeptin, 1 μg/ml antipain, 1 μg/ml pepstatin, and 1 μg/ml aprotinin, homogenized with 20 strokes of a Dounce glass-on-glasshomogenizer and assayed for PDE activity, using 1 μM cAMP as substrate, as described previously. Data points represent the means of 2 to 10 separate determinations. […] Control activity was 1.66±0.14 pmol/min/10^6 cells (mean±S.E.M.; n=8) in the absence and 4.80±0.42 pmol/min/10^6 cells (mean±S.E.M.; n=10) in the presence of Ca^2+ and calmodulin.
RPMI 8392 cells were grown and treated with AS and NS ODN as described in the legend to FIG. 2. Cells were then collected at daily intervals and assayed for PDE activity as described in FIG. 10. Results represent the mean±the range of duplicate determinations. Control activities (pmol/min/10^6 cells) were 1.17, 1.34, and 1.50 in the absence, and 3.83, 4.34, and 3.79 in the presence of Ca^2+ and calmodulin at days 1, 2, and 3, respectively.

Substance | Level of PDE1B1 mRNA expression ([1]; 1 day) | Level of PDE1B1 mRNA expression ([1]; 2 days) | PDE1 activity ([2]; 30 μM ODN, 2 days) | PDE1 (CaM-stimulated PDE) activity ([2]; 10 or 30 μM ODN) | Level of PDE1B1 mRNA expression ([1]; 1 and 2 days) | PDE1 activity ([2]; 10 or 30 μM ODN, time not specified)
5'-GGACAGCTCCATGCTCAG-3' (phosphorothioate, further chemistry not given here) [AS ODN, 18 nt phosphorothioate antisense oligodeoxynucleotide targeted against the translation initiation region of PDE1B1] | diminished | absent; also recorded: almost undetectable | noticeably diminished | undetectable; also recorded: disappear completely |  | 
5'-TACGTGAGGCACCTACGC-3' (phosphorothioate, further chemistry not given here) [NS ODN, control phosphorothioate nonsense ODN, same base composition as the AS ODN in random, scrambled order] |  |  |  | relatively unchanged | no effect | little or no effect
